Source: patent US8835377B2, “Oral delivery of peptide pharmaceutical compositions” (UGP Therapeutics, Inc., priority 2004, dated 2014)

Assay: Pharmacokinetics after oral capsules (sCT plus Dmt-DALDA with citric acid and lauroyl carnitine), non-enteric coated or enteric coated, in fasted beagle dogs (plasma; ELISA for sCT, HPLC-MS for Dmt-DALDA)
Assay type: in vivo
Settings: for AUC / Cmax: normalized to a 1 mg dose; for Tmax / Cmax: beagle, dog, plasma, oral; for plasma peptide concentration normalized to a 1 mg dose: enteric coated capsule
Protocol: A second series of tests was carried out, as noted above, using beagle dogs. […] In the experiments represented in FIGS. 2A and 2B, size 00 […] capsules were each filled with 758 mg of a powdered blend consisting of citric acid (643 mg), lauroyl carnitine (66 mg), talc (33 mg), salmon calcitonin (sCT) (13 mg) and Dmt-DALDA (2.4 mg). Half of the capsules were coated with an enteric coating solution of L30D-55, while the remaining 50% of the capsules were not coated. Four fasted dogs were each given 1 uncoated capsule, and 2 weeks later they were each given an enteric coated capsule. After administration of each capsule, samples of blood were taken at 15 minute intervals from an indwelling catheter for up to 4 hours. The blood samples were centrifuged and the resulting plasma supernatants were stored frozen at −20° C. The plasma samples were subsequently analyzed for sCT by a direct ELISA, and for Dmt-DALDA by HPLC-mass spectrometry performed as set forth in Wan, H. and Desiderio, D., Quantitation of [DMT^1] DALDA in ovine plasma by on-line liquid chromatography/quadrapole time-of-flight mass spectrometry, Rapid Communications in Mass Spectrometry, 2003; 17, 538-546, the contents of which are incorporated herein by reference.
The results summarized in FIGS. 2A and 2B as plasma peptide concentration normalized to a 1 mg dose as a function of time relative to the average Tmax, (i.e., the time at which the maximum amount of peptide was detected) indicate that both peptides, i.e., sCT and Dmt-DALDA, were detected in dogs given uncoated or enteric coated capsules. […] Table DI (below) sets forth the values upon which the curves in FIGS. 2A and 2B are based. The results are summarized in the tables as plasma peptide concentration normalized to a 1 mg dose as a function of time. Table III, moreover, provides the standard deviations for the data obtained regarding each of the test dogs, which standard deviations are also indicated in FIGS. 2A and 2B.
Table IV (below) summarizes the pharmacokinetic parameters in dogs of orally administered sCT and Dmt-DALDA when administered in non-enteric coated versus enteric coated capsules. Peptide was not detected from 1 dog in each group due to (a) Dog 3 vomiting the uncoated capsule and (b) delayed gastric emptying in Dog 2 provided with an enteric coated capsule. Cmax and AUC are as defined with regard to Table H above.

[1] = Non-Enteric Capsule, Avg (n = 3)

## CC(C)C[C@H](NC(=O)[C@H](CCCCN)NC(=O)CNC(=O)[C@H](CC(C)C)NC(=O)[C@@H](NC(=O)[C@@H]1CSSC[C@H](N)C(=O)N[C@@H](CO)C(=O)N[C@@H](CC(N)=O)C(=O)N[C@@H](CC(C)C)C(=O)N[C@@H](CO)C(=O)N[C@@H]([C@@H](C)O)C(=O)N1)C(C)C)C(=O)N[C@@H](CO)C(=O)N[C@@H](CCC(N)=O)C(=O)N[C@@H](CCC(=O)O)C(=O)N[C@@H](CC(C)C)C(=O)N[C@@H](Cc1c[nH]cn1)C(=O)N[C@@H](CCCCN)C(=O)N[C@@H](CC(C)C)C(=O)N[C@@H](CCC(N)=O)C(=O)N[C@H](C(=O)N[C@@H](Cc1ccc(O)cc1)C(=O)N1CCC[C@H]1C(=O)N[C@@H](CCCNC(=N)N)C(=O)N[C@H](C(=O)N[C@@H](CC(N)=O)C(=O)N[C@H](C(=O)NCC(=O)N[C@@H](CO)C(=O)NCC(=O)N[C@H](C(=O)N1CCC[C@H]1C(N)=O)[C@@H](C)O)[C@@H](C)O)[C@@H](C)O)[C@@H](C)O [sCT, salmon calcitonin]
Enteric Capsule, Avg (n = 3)
  AUC: 788317 pg/mL-min
  Tmax: 105 min
  Cmax: 17.2 ng/mL
Enteric Capsule, Dog 1
  AUC: 1178504 pg/mL-min
  Cmax: 25.1 ng/mL
Enteric Capsule, Dog 2 (delayed gastric emptying)
  AUC: 0 pg/mL-min
Enteric Capsule, Dog 3
  AUC: 522432 pg/mL-min
  Tmax: 135 min
  Cmax: 13.2 ng/mL
Enteric Capsule, Dog 4
  AUC: 664016 pg/mL-min
  Tmax: 120 min
  Cmax: 13.1 ng/mL
[1]
  AUC: 69539 pg/mL-min
  Tmax: 30 min
  Cmax: 2.26 ng/mL
Non-Enteric Capsule, Dog 1
  AUC: 79620 pg/mL-min
  Tmax: 30 min
  Cmax: 2.65 ng/mL
Non-Enteric Capsule, Dog 2
  AUC: 103772 pg/mL-min
  Tmax: 30 min
  Cmax: 3.15 ng/mL
Non-Enteric Capsule, Dog 3 (vomited capsule)
  AUC: 0 pg/mL-min
Non-Enteric Capsule, Dog 4
  AUC: 25227 pg/mL-min
  Tmax: 30 min
  Cmax: 0.971 ng/mL
dogs
  Cmax and AUC, enteric coated capsules versus non enteric-coated capsules: significantly enhanced
  amount of peptide detected in plasma, enteric coated capsules vs non-coated capsules: nearly eight times as much
Dogs given coated capsules
  time at which the maximum concentration was seen: 105 min
Dogs given uncoated capsules
  time at which the maximum concentration was seen: 30 min
Dog 1, 0 min
  plasma peptide concentration normalized to a 1 mg dose: 0 pg/mL
Dog 1, 15 min
  plasma peptide concentration normalized to a 1 mg dose: 0 pg/mL
Dog 1, 30 min
  plasma peptide concentration normalized to a 1 mg dose: 407 pg/mL
Dog 1, 45 min
  plasma peptide concentration normalized to a 1 mg dose: 22650 pg/mL
Dog 1, 60 min
  plasma peptide concentration normalized to a 1 mg dose: 25136 pg/mL
Dog 1, 75 min
  plasma peptide concentration normalized to a 1 mg dose: 6444 pg/mL
Dog 1, 90 min
  plasma peptide concentration normalized to a 1 mg dose: 8167 pg/mL
Dog 1, 105 min
  plasma peptide concentration normalized to a 1 mg dose: 4344 pg/mL
Dog 1, 120 min
  plasma peptide concentration normalized to a 1 mg dose: 3193 pg/mL
Dog 1, 135 min
  plasma peptide concentration normalized to a 1 mg dose: 2710 pg/mL
Dog 1, 150 min
  plasma peptide concentration normalized to a 1 mg dose: 1706 pg/mL
Dog 1, 165 min
  plasma peptide concentration normalized to a 1 mg dose: 1283 pg/mL
Dog 1, 180 min
  plasma peptide concentration normalized to a 1 mg dose: 1301 pg/mL
Dog 1, 195 min
  plasma peptide concentration normalized to a 1 mg dose: 459 pg/mL
Dog 1, 210 min
  plasma peptide concentration normalized to a 1 mg dose: 347 pg/mL
Dog 2 (delayed gastric emptying), 0 min
  plasma peptide concentration normalized to a 1 mg dose: 0 pg/mL
Dog 2 (delayed gastric emptying), 15 min
  plasma peptide concentration normalized to a 1 mg dose: 0 pg/mL
Dog 2 (delayed gastric emptying), 30 min
  plasma peptide concentration normalized to a 1 mg dose: 0 pg/mL
Dog 2 (delayed gastric emptying), 45 min
  plasma peptide concentration normalized to a 1 mg dose: 0 pg/mL
Dog 2 (delayed gastric emptying), 60 min
  plasma peptide concentration normalized to a 1 mg dose: 0 pg/mL
Dog 2 (delayed gastric emptying), 75 min
  plasma peptide concentration normalized to a 1 mg dose: 0 pg/mL
Dog 2 (delayed gastric emptying), 90 min
  plasma peptide concentration normalized to a 1 mg dose: 0 pg/mL
Dog 2 (delayed gastric emptying), 105 min
  plasma peptide concentration normalized to a 1 mg dose: 0 pg/mL
Dog 2 (delayed gastric emptying), 120 min
  plasma peptide concentration normalized to a 1 mg dose: 0 pg/mL
Dog 2 (delayed gastric emptying), 135 min
  plasma peptide concentration normalized to a 1 mg dose: 0 pg/mL
Dog 2 (delayed gastric emptying), 150 min
  plasma peptide concentration normalized to a 1 mg dose: 0 pg/mL
Dog 2 (delayed gastric emptying), 165 min
  plasma peptide concentration normalized to a 1 mg dose: 0 pg/mL
Dog 2 (delayed gastric emptying), 180 min
  plasma peptide concentration normalized to a 1 mg dose: 0 pg/mL
Dog 2 (delayed gastric emptying), 195 min
  plasma peptide concentration normalized to a 1 mg dose: 0 pg/mL
Dog 2 (delayed gastric emptying), 210 min
  plasma peptide concentration normalized to a 1 mg dose: 0 pg/mL
Dog 3, 0 min
  plasma peptide concentration normalized to a 1 mg dose: 0 pg/mL
Dog 3, 15 min
  plasma peptide concentration normalized to a 1 mg dose: 0 pg/mL
Dog 3, 30 min
  plasma peptide concentration normalized to a 1 mg dose: 0 pg/mL
Dog 3, 45 min
  plasma peptide concentration normalized to a 1 mg dose: 0 pg/mL
Dog 3, 60 min
  plasma peptide concentration normalized to a 1 mg dose: 0 pg/mL
